Results published in patent publication US20230320996A1, “NANOPARTICLES AND METHODS OF MANUFACTURE THEREOF” (Hillstream BioPharma, Inc., priority 2020, published 2023).

What was measured:
BALB/c mice = assay: Maximum tolerated dose, body weight reduction as response; format: in vivo; details: intravenously
Experimental: Next, the maximum tolerated dose of salinomycin and salinomycin-loaded PLA based hybrid block copolymeric salinomycin nanoparticle was probed in BALB/c mice. Mice were administered the salinomycin loaded hybrid block copolymeric nanoparticles once a week for 3 weeks. The body weight reduction was observed as a phenotypic response. The dose-response of salinomycin and the salinomycin nanoparticle was observed by administration intraperitoneally (FIG. 7) and intravenously (FIG. 8). For intraperitoneal administration, mice were administered salinomycin and salinomycin loaded nanoparticles at 5 mg/kg, 7.5 mg/kg, 10 mg/kg. Further, only the salinomycin nanoparticles were administered at 12 mg/kg and 15 mg/kg, intraperitoneally. Three mice were probed at each dose for salinomycin and salinomycin loaded nanoparticle. For intravenous administration, mice were administered salinomycin and salinomycin loaded nanoparticles at 5 mg/kg. Only salinomycin nanoparticles were administered at 1 mg/kg, and 7.5 mg/kg. Further another group of salinomycin at 2.5 mg/kg was also tested. Three mice were probed at each dose for salinomycin and salinomycin loaded nanoparticle. It was observed that free salinomycin was tolerated up to a dose of 10 mg/kg and the salinomycin loaded nanoparticle was tolerated up to 15 mg/kg, when administered intraperitoneally. […]

MDA-MB 468 cells = assay: Inhibition of cell proliferation; format: cell-based; details: Homo sapiens, 5000 cells per well, 0.01-100 μM, 72 hours
Experimental: (§1) Next, the potency of inhibition of salinomycin-induced cell growth was probed by comparing the inhibition with salinomycin and salinomycin nanoparticle in MCF-7, MDA-MB 231 and MDA-MB 468 cell lines. […] (see FIG. 6A, B, C). MCF-7 cells at concentration of 5000 cells per well were treated with salinomycin or salinomycin nanoparticles from a concentration of 0.01-100 μM respectively for 72 hours. […] MDA-MB 468 cells at concentration of 5000 cells per well were treated with salinomycin or salinomycin nanoparticles from a concentration of 0.01-100 μM respectively for 72 hours. […] MDA-MB 231 cells at concentration of 5000 cells per well were treated with salinomycin or salinomycin nanoparticles from a concentration of 0.01-100 μM respectively for 72 hours.

MDA-MB 231 cells = assay: Inhibition of cell proliferation; format: cell-based; details: Homo sapiens, 5000 cells per well, 0.01-100 μM, 72 hours
Experimental: as §1

MCF-7 cells = assay: Inhibition of cell proliferation; format: cell-based; details: Homo sapiens, MCF7; 5000 cells per well, 0.01-100 μM, 72 hours
Experimental: as §1

CC[C@@H](C(=O)[C@@H](C)[C@@H](O)[C@H](C)[C@@H]1O[C@@H]([C@@H](CC)C(=O)O)CC[C@@H]1C)[C@H]1O[C@]2(C=C[C@@H](O)[C@]3(CC[C@@](C)([C@H]4CC[C@](O)(CC)[C@H](C)O4)O3)O2)[C@H](C)C[C@@H]1C [salinomycin]
lethal dose (BALB/c mice): 5 mg/kg | IC50 (MDA-MB 468 cells): 1.47 µM | IC50 (MDA-MB 231 cells): 3.46 µM | IC50 (MCF-7 cells): 2.27 µM
